Results published in patent US5126265A, “AB-021 antibiotics and process for producing them” (Presidenza del Consiglio dei Ministri-Ufficio del Ministro …, priority 1988, dated 1992).

system: Streptomyces sp. NCIB 40068; experiment: Resistance of the producing strain (Table B); type: cell-based; conditions: producing strain Streptomyces sp. NCIB 40068

Row | Compound | Resistance to (antimicrobial) [ppm]
1 | Lysozyme | 10
2 | CO[C@H]1/C=C/O[C@@]2(C)Oc3c(C)c(O)c4c(O)c(c(/C=N/N5CCN(C)CC5)c(O)c4c3C2=O)NC(=O)/C(C)=C\C=C\[C@H](C)[C@H](O)[C@@H](C)[C@@H](O)[C@@H](C)[C@H](OC(C)=O)[C@@H]1C [Rifampicin] | 2
3 | CN(C)C1C(=O)C(C(N)=O)=C(O)C2(O)C(=O)C3=C(O)c4c(O)cccc4C(C)(O)C3C(O)C12 (stereo not drawn) [Oxytetracycline] | 8
